From PMC6208284 (Phytotherapy Research, 2018)

Assays:
[1] = set-up: method as in Rappoport & Frankel, 1967; details: ref Rappoport & Frankel, 1967; cited from earlier work
[2] = system: Leishmania tarentolae promastigotes (LtP); test: Superoxide radical detection in LtP by CMH/ESR; format: cell-based; details: 5 μM, positive control, with DFO and DTPA
Method: Detection of superoxide radicals was performed using CMH as reaction partner and measuring the formed stable nitroxyl radicals by electron spin resonance (ESR) spectroscopy. Measurements were performed in PBS (136 mM NaCl, 1.15 mM KH2PO4, 14 mM Na2HPO4, and 2.7 mM KCl, pH 7.4) containing 15 mM glucose, 400 μM CMH, and 100 μM DFO (desferrioxamine mesylate) and 25 μM DTPA. Usually, these assays are performed in the presence of iron chelators (DFO and DTPA) to prevent CMH interaction with free Fe^3+ leading to CM^● unrelated to superoxide radicals. Before the measurements, LtP suspensions were washed twice with PBS to remove the medium. Typical experiments contained 5 × 10^8 LtP cells/ml. Stock solutions of EO compounds dissolved in DMSO were added. The influence of Asc (6–700 μM) on the CMH oxidation rate by LtP was assessed immediately and after prolonged incubation time (1 hr between Asc and CMH addition). The influence of iron‐dependent Asc activation in LtP on CMH oxidation was studied in the absence of iron chelators DFO and DTPA. Prior to the ESR measurement, 400 μM CMH was added. Afterwards, 17 μl of suspension was aspirated in gas‐permeable Teflon tubes (ID 0.7 mm). This capillary tube was placed in the resonator of the ESR instrument (Bruker EMX, split ring MD5, Germany), and 10 sequential measurements were performed. The following instrument settings were used: microwave frequency 9.682 GHz, modulation frequency 100 kHz, modulation amplitude 1 G, time constant 0.082 s, center field 3,446 G, scan rate 71 G/min, sweep width 100 G, scan time 84 s, and attenuation CMH: 7.96 × 10^3. From the ESR spectra, the middle peak intensity was retrieved, and concentrations of oxidized CMH were obtained by comparison with a standard curve prepared from 3‐carboxy‐proxyl solutions with defined concentrations. Four replicate measurements were performed for each condition.

[3] = system: Leishmania tarentolae promastigotes (LtP); test: Immediate mitochondrial uncoupling in LtP, OxoPlates with oligomycin; format: cell-based; details: positive control uncoupler, 0.7–5 μM, LtP + 5 μM Oligo
Method: U‐shaped 96‐well OxoPlates (OP96U PreSens, Germany) with integrated fluorescence oxygen sensors were used for parallel LtP experiments. Oxygen concentrations were measured using a PerkinElmer Enspire fluorescence plate reader using excitation wavelength 540 nm and two emission wavelengths (reference dye 590 nm, IRef, and O2‐sensing dye 650 nm, IInd). The oxygen concentration (μM O2) was calculated according to manufacturer's instructions as described previously (Monzote et al., 2016). Measurements with LtP were performed in air‐saturated BHI medium. […] Immediately before the measurement, 150 μl of well‐aerated cell suspensions (13 × 10^7 LtP per ml) was added to the respective wells. Finally, on the top of each well, 50 μl of paraffin oil was layered. Two minutes after mixing, the fluorescence measurements at 27 °C were started, and eight measurements at 5‐min intervals were performed. From the linear part of the O2 decay, the slopes were calculated and corrected for the medium drift for further statistic evaluation. All measurements were performed at least in triplicate. For bioenergetic characterization, the ATP synthase inhibitor Oligo (5 μM) and as positive control CCCP (0.7–5 μM) were used. Respiratory control ratio (RCR) was calculated from respiration rate in the presence of Oligo and compounds/uncoupler divided by the rate in the presence of Oligo.

In the case of `O=[N+]([O-])c1ccc(O)c([N+](=O)[O-])c1` [2,4‐dinitrophenol, reference compound], the pKa value [1] is listed as “around 4”.
With `CCCCCC[C@H]1C(=O)O[C@H](C)[C@H](NC(=O)c2cccc(NC=O)c2O)C(=O)O[C@@H](C)[C@@H]1OC(=O)CC(C)C` [AA, antimycin A, reference compound] the “CM● formation (superoxide radicals) in LtP” value [2] was “showed an increase”.
For `N#CC(C#N)=NNc1cccc(Cl)c1` [CCCP, carbonyl cyanide‐m‐chlorophenylhydrazone, reference compound], the “Oligo‐inhibited respiration in LtP” value [3] was “clear increase”.
